From ChEMBL document CHEMBL1275583, “First report of KPC-2-producing Klebsiella pneumoniae strains in Brazil” (2009)
≈ marks a conversion by molar mass, not a printed value.

Columns and labels:
Klebsiella pneumoniae [1] = assay: Antibacterial activity against Klebsiella pneumoniae urine isolate A28009 PFGE pattern A expressing KPC-2, TEM-1, SHV-11, CTX-M-2 beta-lactamase by agar dilution method; format: functional
Klebsiella pneumoniae [2] = assay: Antibacterial activity against Klebsiella pneumoniae blood isolate A28008 PFGE pattern A expressing KPC-2, TEM-1, SHV-11, CTX-M-2 beta-lactamase by agar dilution method; format: functional
Klebsiella pneumoniae [3] = assay: Antibacterial activity against Klebsiella pneumoniae blood isolate A28006 PFGE pattern A expressing KPC-2, TEM-1, SHV-11, CTX-M-2 beta-lactamase by agar dilution method; format: functional
Escherichia coli [4] = assay: Antibacterial activity against Escherichia coli DH10B by agar dilution method; format: functional; conditions: K-12 DH10B
Klebsiella pneumoniae [5] = assay: Antibacterial activity against Klebsiella pneumoniae urine isolate A28011 PFGE pattern A expressing KPC-2 CTX-M-2 beta-lactamase by agar dilution method; format: functional
Escherichia coli [6] = assay: microbe, parasite or virus in culture; conditions: K-12 DH10B
Description: (§1) Antibacterial activity against Escherichia coli DH10B expressing KPC-2 CTX-M-2 by agar dilution method

Klebsiella pneumoniae [7] = assay: Antibacterial activity against Klebsiella pneumoniae urine isolate A28009 PFGE pattern A expressing KPC-2, TEM-1, SHV-11, CTX-M-2 beta-lactamase by agar dilution method in presence of Tazobactam; format: functional
Klebsiella pneumoniae [8] = assay: Antibacterial activity against Klebsiella pneumoniae blood isolate A28008 PFGE pattern A expressing KPC-2, TEM-1, SHV-11, CTX-M-2 beta-lactamase by agar dilution method in presence of Tazobactam; format: functional
Klebsiella pneumoniae [9] = assay: Antibacterial activity against Klebsiella pneumoniae blood isolate A28006 PFGE pattern A expressing KPC-2, TEM-1, SHV-11, CTX-M-2 beta-lactamase by agar dilution method in presence of Tazobactam; format: functional
Klebsiella pneumoniae [10] = assay: Antibacterial activity against Klebsiella pneumoniae urine isolate A28011 PFGE pattern A expressing KPC-2, CTX-M-2 beta-lactamase by agar dilution method in presence of Tazobactam; format: functional
Klebsiella pneumoniae [11] = assay: Antibacterial activity against Klebsiella pneumoniae urine isolate A28009 PFGE pattern A expressing KPC-2, TEM-1, SHV-11, CTX-M-2 beta-lactamase by Etest method; format: functional
Klebsiella pneumoniae [12] = assay: Antibacterial activity against Klebsiella pneumoniae blood isolate A28008 PFGE pattern A expressing KPC-2, TEM-1, SHV-11, CTX-M-2 beta-lactamase by Etest method; format: functional
Klebsiella pneumoniae [13] = assay: Antibacterial activity against Klebsiella pneumoniae blood isolate A28006 PFGE pattern A expressing KPC-2, TEM-1, SHV-11, CTX-M-2 beta-lactamase by Etest method; format: functional
Escherichia coli [14] = assay: Antibacterial activity against Escherichia coli DH10B expressing KPC-2 CTX-M-2 by Etest method; format: functional; conditions: K-12 DH10B
Escherichia coli [15] = assay: Antibacterial activity against Escherichia coli DH10B by Etest method; format: functional; conditions: K-12 DH10B
Klebsiella pneumoniae [16] = assay: Antibacterial activity against Klebsiella pneumoniae urine isolate A28011 PFGE pattern A expressing KPC-2, CTX-M-2 beta-lactamase by Etest method; format: functional
Escherichia coli [17] = conditions: K-12 DH10B
Description: as §1

Row | Molecule | MIC (Klebsiella pneumoniae [1]) [µg/mL] | MIC (Klebsiella pneumoniae [2]) [µg/mL] | MIC (Klebsiella pneumoniae [3]) [µg/mL] | MIC (Escherichia coli [4]) [µg/mL] | MIC (Klebsiella pneumoniae [5]) [µg/mL] | MIC (Escherichia coli [6]) [µg/mL] | also measured
1 | CO/N=C(\C(=O)N[C@@H]1C(=O)N2C(C(=O)[O-])=C(C[N+]3(C)CCCC3)CS[C@H]12)c1csc(N)n1 | 64 (≈ 133 µM) | 32 (≈ 66.6 µM) | 128 (≈ 266 µM) | 0.25 (≈ 0.52 µM) | > 256 | 2 (≈ 4.16 µM) | 
2 | C[C@H]1[C@H](NC(=O)/C(=N\OC(C)(C)C(=O)O)c2csc(N)n2)C(=O)N1S(=O)(=O)O [AZTREONAM] | > 256 | 64 (≈ 147 µM) |  |  | > 256 | 32 (≈ 73.5 µM) | 
3 | CO/N=C(\C(=O)N[C@@H]1C(=O)N2C(C(=O)O)=C(COC(C)=O)CS[C@H]12)c1csc(N)n1 [CEFOTAXIME] | > 256 | > 256 | > 256 | < 0.25 | > 256 | 4 (≈ 8.78 µM) | 
4 | CO[C@@]1(NC(=O)Cc2cccs2)C(=O)N2C(C(=O)O)=C(COC(N)=O)CS[C@@H]21 [CEFOXITIN] | 64 (≈ 150 µM) | 16 (≈ 37.4 µM) | 32 (≈ 74.9 µM) | 4 (≈ 9.36 µM) | > 256 | 8 (≈ 18.7 µM) | 
5 | CC(C)(O/N=C(\C(=O)N[C@@H]1C(=O)N2C(C(=O)[O-])=C(C[n+]3ccccc3)CS[C@H]12)c1csc(N)n1)C(=O)O [CEFTAZIDIME] | 32 (≈ 58.5 µM) | 16 (≈ 29.3 µM) | 16 (≈ 29.3 µM) | 0.25 (≈ 0.457 µM) | 64 (≈ 117 µM) | 4 (≈ 7.32 µM) | 
6 | CO/N=C(\C(=O)N[C@@H]1C(=O)N2C(C(=O)O)=C(CSc3nc(=O)c(O)nn3C)CS[C@H]12)c1csc(N)n1 [CEFTRIAXONE] | > 256 | > 256 | > 256 | 0.06 (≈ 0.108 µM) | > 256 | > 256 | 
7 | C[C@@H](O)[C@H]1C(=O)N2C(C(=O)O)=C(SCCNC=N)C[C@H]12 [IMIPENEM ANHYDROUS] | 32 (≈ 107 µM) | 32 (≈ 107 µM) | 4 (≈ 13.4 µM) |  | 16 (≈ 53.4 µM) | 2 (≈ 6.68 µM) | 
8 | C[C@@H](O)[C@H]1C(=O)N2C(C(=O)O)=C(S[C@@H]3CN[C@H](C(=O)N(C)C)C3)[C@H](C)[C@H]12 [MEROPENEM] | > 32 | 4 (≈ 10.4 µM) | 32 (≈ 83.4 µM) | 0.25 (≈ 0.652 µM) | > 32 | 0.5 (≈ 1.3 µM) | 
9 | CCN1CCN(C(=O)N[C@@H](C(=O)N[C@@H]2C(=O)N3[C@@H]2SC(C)(C)[C@@H]3C(=O)O)c2ccccc2)C(=O)C1=O [PIPERACILLIN] |  |  |  |  |  |  | MIC (Klebsiella pneumoniae [7]): 16 µg/mL; MIC (Klebsiella pneumoniae [8]): 16 µg/mL; MIC (Klebsiella pneumoniae [9]): 16 µg/mL; MIC (Klebsiella pneumoniae [10]): 8 µg/mL
10 | CN(C)c1cc(NC(=O)CNC(C)(C)C)c(O)c2c1C[C@H]1C[C@H]3[C@H](N(C)C)C(O)=C(C(N)=O)C(=O)[C@@]3(O)C(O)=C1C2=O [TIGECYCLINE] |  |  |  |  |  |  | MIC (Klebsiella pneumoniae [11]): 0.38 µg/mL (≈ 0.649 µM); MIC (Klebsiella pneumoniae [12]): 0.38 µg/mL (≈ 0.649 µM); MIC (Klebsiella pneumoniae [13]): 0.38 µg/mL (≈ 0.649 µM); MIC (Escherichia coli [14]): 0.06 µg/mL (≈ 0.102 µM); MIC (Escherichia coli [15]): 0.06 µg/mL (≈ 0.102 µM); MIC (Klebsiella pneumoniae [16]): 0.5 µg/mL (≈ 0.854 µM)
11 | GENTAMICIN | 1 | 1 | 1 | 0.12 | 1 |  | MIC (Escherichia coli [17]): 0.12 µg/mL
12 | POLYMYXIN B | 2 | 2 | 2 | 0.38 | 2 |  | MIC (Escherichia coli [17]): 0.38 µg/mL
